Some test systems named below: HOP-62 NSCLC; HL-60(TB) leukemia; RPMI-8226 leukemia; A549 NSCLC; EKVX NSCLC; HCC-2998 colon; UO-31 renal; HCT-116 colon; HT29 colon; 786-0 renal; SF-539 CNS; COLO 205 colon; SK-OV-3 ovarian; DU-145 prostate; MALME-3M melanoma; UACC-257 melanoma; U251 CNS; MDA-MB-231 breast; OVCAR-4 ovarian; SNB-75 CNS.
What all share (test): growth of human tumour cells (NCI), 48 h

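Values below derive from 48-hour exposures of cells grown in 96-well plates, with endpoints linearly interpolated between the two concentrations bracketing the appropriate inhibition level. TGI: total growth inhibition.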 A value given as a limit tells only on which side of the number the result lay.

For `Cn1c(NNc2ccccc2)cc(=O)[nH]c1=O`, the TGI was over 100 µM with HOP-62 NSCLC; over 100 µM in the assay with HL-60(TB) leukemia; over 100 µM with RPMI-8226 leukemia; over 100 µM in the assay with A549 NSCLC; over 100 µM with EKVX NSCLC; 97.5 µM in the assay with HCC-2998 colon. The TGI was over 100 µM in the assay on UO-31 renal; over 100 µM with HCT-116 colon; over 100 µM in the assay with HT29 colon; 44.2 µM with 786-0 renal; over 100 µM in the assay with SF-539 CNS; over 100 µM in the assay with COLO 205 colon. Moreover, the TGI with SK-OV-3 ovarian, in the assay with DU-145 prostate, with MALME-3M melanoma, in the assay with UACC-257 melanoma, in the assay on U251 CNS and with MDA-MB-231 breast was over 100 µM each time. Moreover, the TGI in the assay with OVCAR-4 ovarian and with SNB-75 CNS was over 100 µM throughout.
In the case of `CCCCNc1nc2ccccc2c2c1ncn2CC(C)C`, the TGI in the assay with HOP-62 NSCLC, in the assay on HL-60(TB) leukemia, in the assay on RPMI-8226 leukemia, in the assay on A549 NSCLC, in the assay with EKVX NSCLC and with HCC-2998 colon was over 100 µM in each case. The TGI in the assay with UO-31 renal, with HCT-116 colon, with HT29 colon, with 786-0 renal, in the assay on SF-539 CNS and in the assay on COLO 205 colon was over 100 µM in each case. Moreover, the TGI with SK-OV-3 ovarian, in the assay with DU-145 prostate, in the assay with MALME-3M melanoma, with UACC-257 melanoma, in the assay on U251 CNS and in the assay with MDA-MB-231 breast was over 100 µM in each case. Besides, the TGI in the assay on OVCAR-4 ovarian and with SNB-75 CNS was over 100 µM in each case.
Regarding `CC(=O)OC(CN1CCN(c2ccccn2)CC1)Cn1sc2nc(C)cc(C)c2c1=O` (stereo not given), the TGI in the assay with HOP-62 NSCLC is 81.1 µM; in the assay with HL-60(TB) leukemia it was 55.5 µM; with RPMI-8226 leukemia, over 100 µM; with A549 NSCLC, 45.8 µM; with EKVX NSCLC, 32.4 µM; in the assay with HCC-2998 colon it was 34.4 µM. In addition, the TGI with UO-31 renal turned out to be 30.2 µM; with HCT-116 colon it was 30.5 µM; in the assay with HT29 colon, 34.4 µM; in the assay with 786-0 renal, 28.1 µM; in the assay on SF-539 CNS it was 29.2 µM; with COLO 205 colon, 31.2 µM. Also, the TGI in the assay with SK-OV-3 ovarian worked out at 35.9 µM; in the assay with DU-145 prostate it was 33.9 µM; in the assay with MALME-3M melanoma, 32.6 µM; in the assay on UACC-257 melanoma, 32 µM; in the assay with U251 CNS, 32.1 µM; with MDA-MB-231 breast it was 32.6 µM. Further, the TGI in the assay with OVCAR-4 ovarian amounted to 55.4 µM; in the assay with SNB-75 CNS, 32.8 µM.
As to `CCCC(=O)NC(Nc1cc(C)ccn1)(C(=O)OCC)C(F)(F)F` (stereo not given), the TGI with HOP-62 NSCLC, in the assay on HL-60(TB) leukemia, with RPMI-8226 leukemia, in the assay on A549 NSCLC, with EKVX NSCLC and in the assay on HCC-2998 colon was over 100 µM each time. In addition, the TGI in the assay with UO-31 renal, in the assay with HCT-116 colon, in the assay on HT29 colon, with 786-0 renal, in the assay on SF-539 CNS and in the assay with COLO 205 colon was over 100 µM throughout. Also, the TGI with SK-OV-3 ovarian, in the assay with DU-145 prostate, with MALME-3M melanoma, in the assay on UACC-257 melanoma, in the assay with U251 CNS and in the assay with MDA-MB-231 breast was over 100 µM throughout. The TGI with OVCAR-4 ovarian and in the assay on SNB-75 CNS was over 100 µM throughout.
Take `CCCCCCCCCCCCCCCCCCNc1ccn(C2OC(COP(=O)(O)OCC3OC(n4cc(C)c(=O)[nH]c4=O)CC3F)C(O)C2O)c(=O)n1` (stereo not given): the TGI in the assay on HOP-62 NSCLC amounted to 33.1 µM; in the assay with HL-60(TB) leukemia it was 19.3 µM; with RPMI-8226 leukemia, 12.9 µM; in the assay with A549 NSCLC, 46.7 µM; in the assay on EKVX NSCLC, 20.7 µM; with HCC-2998 colon it was 13.5 µM. For the same molecule, the TGI in the assay with UO-31 renal was 43.6 µM; in the assay on HCT-116 colon it was 42.8 µM; in the assay on HT29 colon, over 55 µM; in the assay with 786-0 renal, 9.52 µM; in the assay on SF-539 CNS it was 19.9 µM; in the assay with COLO 205 colon, 9.53 µM. The TGI in the assay with SK-OV-3 ovarian was 18 µM; in the assay with DU-145 prostate it was 46.2 µM; in the assay with MALME-3M melanoma, 40.9 µM; in the assay on UACC-257 melanoma, 27.8 µM; with U251 CNS, 15 µM; with MDA-MB-231 breast, 48.7 µM. In addition, the TGI in the assay on OVCAR-4 ovarian stood at 42.5 µM; in the assay with SNB-75 CNS, 37.6 µM.
With `C=CCNC(=S)N=Nc1c(O)n(CN2CCOCC2)c2ccc([N+](=O)[O-])cc12`, the TGI is over 100 µM in the assay on HOP-62 NSCLC; over 100 µM with HL-60(TB) leukemia; over 100 µM in the assay on RPMI-8226 leukemia; over 100 µM in the assay with A549 NSCLC; over 100 µM in the assay on EKVX NSCLC; 90.3 µM with HCC-2998 colon. The TGI with UO-31 renal, in the assay with HCT-116 colon, with HT29 colon, with 786-0 renal, in the assay with SF-539 CNS and in the assay on COLO 205 colon was over 100 µM throughout. Also, the TGI in the assay on SK-OV-3 ovarian, in the assay with DU-145 prostate, in the assay on MALME-3M melanoma, in the assay with UACC-257 melanoma, in the assay with U251 CNS and in the assay with MDA-MB-231 breast was over 100 µM in each case. Also, the TGI with OVCAR-4 ovarian is over 100 µM; in the assay on SNB-75 CNS it was 88.3 µM.
As for `O=[N+]([O-])c1ccc(-c2cc(O)c3nc4ccccc4n3c2)cc1`, the TGI in the assay on HOP-62 NSCLC was over 94 µM; with HL-60(TB) leukemia it was over 100 µM; with RPMI-8226 leukemia, over 100 µM; in the assay with A549 NSCLC, over 100 µM; in the assay with EKVX NSCLC, over 100 µM; in the assay on HCC-2998 colon, over 100 µM. Besides, the TGI with UO-31 renal, with HCT-116 colon, with HT29 colon, with 786-0 renal, in the assay with SF-539 CNS and in the assay with COLO 205 colon was over 100 µM throughout. Also, the TGI with SK-OV-3 ovarian, with DU-145 prostate, in the assay on MALME-3M melanoma, in the assay with UACC-257 melanoma, in the assay with U251 CNS and in the assay with MDA-MB-231 breast was over 100 µM in each case. In addition, the TGI in the assay with OVCAR-4 ovarian is over 100 µM; in the assay on SNB-75 CNS, over 76.2 µM.
In the case of `CCN(CC)CCC(=O)c1ccc(Sc2ccc(F)cc2)cc1`, the TGI is 41.4 µM in the assay with HOP-62 NSCLC; 50.5 µM in the assay on HL-60(TB) leukemia; 9.74 µM in the assay on RPMI-8226 leukemia; over 100 µM in the assay on A549 NSCLC; 41.8 µM in the assay with EKVX NSCLC; 89.6 µM in the assay with HCC-2998 colon. For the same molecule, the TGI was 31.9 µM in the assay on UO-31 renal; 33.6 µM in the assay with HCT-116 colon; 85.2 µM in the assay on HT29 colon; 23.6 µM with 786-0 renal; 32.9 µM with SF-539 CNS; 41.9 µM with COLO 205 colon. For the same molecule, the TGI stood at 45 µM with SK-OV-3 ovarian; 36.1 µM in the assay on DU-145 prostate; 33.4 µM in the assay on MALME-3M melanoma; 31 µM with UACC-257 melanoma; 31.1 µM with U251 CNS; 34 µM in the assay with MDA-MB-231 breast. In addition, the TGI was 42.9 µM in the assay on OVCAR-4 ovarian and 32.2 µM in the assay on SNB-75 CNS.
Turning to `Cc1c2ccnc(C(=O)NCCN(C)C)c2cc2c3cc(O)ccc3n(C)c12`, the TGI came out at 2.16 µM in the assay on HOP-62 NSCLC; 0.532 µM in the assay on HL-60(TB) leukemia; 1.14 µM in the assay on RPMI-8226 leukemia; 7.26 µM with A549 NSCLC; 5.18 µM in the assay on EKVX NSCLC; 2.11 µM in the assay on HCC-2998 colon. Moreover, the TGI with UO-31 renal amounted to 4.11 µM; in the assay on HCT-116 colon, 6.1 µM; in the assay with HT29 colon, 3.87 µM; in the assay with 786-0 renal, 3.37 µM; in the assay on SF-539 CNS, 1.3 µM; in the assay with COLO 205 colon, 4.01 µM. Also, the TGI came to 1.65 µM in the assay on SK-OV-3 ovarian; 0.771 µM with DU-145 prostate; 2.06 µM in the assay with MALME-3M melanoma; 4.74 µM in the assay with UACC-257 melanoma; 2.43 µM in the assay on U251 CNS; 3.35 µM with MDA-MB-231 breast. The TGI worked out at 2.22 µM with OVCAR-4 ovarian and 2.19 µM in the assay with SNB-75 CNS.
Consider `COC(=O)c1c(C)cccc1C1CN=NC12Cc1ccccc1C2=O` (stereo not given), for which the TGI with HOP-62 NSCLC, with HL-60(TB) leukemia, in the assay on RPMI-8226 leukemia, in the assay with A549 NSCLC, in the assay with EKVX NSCLC and with HCC-2998 colon was over 100 µM in each case. Further, the TGI with UO-31 renal, with HCT-116 colon, in the assay on HT29 colon, in the assay with 786-0 renal, in the assay on SF-539 CNS and with COLO 205 colon was over 100 µM in each case. Further, the TGI was over 100 µM in the assay with SK-OV-3 ovarian; over 100 µM in the assay with DU-145 prostate; over 100 µM with MALME-3M melanoma; over 91.3 µM in the assay on UACC-257 melanoma; over 100 µM in the assay with U251 CNS; over 100 µM in the assay with MDA-MB-231 breast. The TGI with OVCAR-4 ovarian and in the assay on SNB-75 CNS was over 100 µM each time.
For `COc1ccc(CC2C3=C(CCN2C(=O)C2CCC2)CC2(CC3)OCCO2)cc1O` (stereo not given), the TGI was over 100 µM with HOP-62 NSCLC; 76.9 µM in the assay with HL-60(TB) leukemia; over 100 µM in the assay on RPMI-8226 leukemia; over 100 µM in the assay with A549 NSCLC; over 100 µM with EKVX NSCLC; over 100 µM in the assay with HCC-2998 colon. Besides, the TGI was 1.49 µM in the assay with UO-31 renal; over 100 µM in the assay on HCT-116 colon; over 100 µM in the assay with HT29 colon; over 100 µM with 786-0 renal; 75.9 µM with SF-539 CNS; 48 µM in the assay on COLO 205 colon. The TGI in the assay on SK-OV-3 ovarian was 88.1 µM; with DU-145 prostate, 61.6 µM; with MALME-3M melanoma, over 100 µM; in the assay with UACC-257 melanoma, over 100 µM; with U251 CNS it was over 100 µM; with MDA-MB-231 breast it was over 100 µM. Besides, the values for the TGI in the assay with OVCAR-4 ovarian and in the assay on SNB-75 CNS were over 100 µM and 52.4 µM, respectively.

The values are drawn from PubChem BioAssay (NCI).
